Measured values from the supplement of paper PMC10331698.
± gives the standard deviation of the averaged measurements.

Key:
[1] = compound: T1, C=CC(=O)OCC(F)(F)C(F)(F)C(F)(F)COC(=O)C=C [1H,1H,5H,5H-Perfluoro-1,5-pentanediol diacrylate]; test: LOEC (log10 uM (lowest observed effect concentration))
Method: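 BioMAP Diversity Plus panel in human primary cell co-cultures, 4 concentrations in duplicate blinded samples. Responses are log10 fold change versus DMSO control, processed with tcpl v2.1.0. A hit is called when responses at any concentration exceed the cutoff (the larger of 3*bmad or log10(1.2)); the lowest observed effect concentration (modl_ga, log10 uM) is reported for hits.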

[2] = compound: C=C(C)C(=O)OCCC(F)(F)C(F)(F)C(F)(F)C(F)(F)C(F)(F)C(F)(F)F [6:2 Fluorotelomer methacrylate]; test: level (log10 ratio to DMSO vehicle control); higher = higher biomarker level / cell amount than vehicle control; conditions: in DMSO
Method: (§1)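 BioMAP Diversity Plus panel of 12 human primary cell co-culture systems (3C, 4H, LPS, SAg, BT, BF4T, BE3C, CASM3C, HDF3CGF, KF3CT, MyoF, Mphg). Compounds were added 1 h before stimulation and left for 24 h (MyoF 48 h; BT 72 h for soluble read-outs or 6 d for IgG). Biomarkers were read by ELISA, cytotoxicity by SRB, PBMC viability and proliferation by Alamar Blue. Each well value was divided by the mean of 8 DMSO control wells on the same plate and log10 transformed; duplicate blinded samples were tested at 4 concentrations.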

[3] = compound: T1, 1H,1H,5H,5H-Perfluoro-1,5-pentanediol diacrylate; test: as above; conditions: 6700 nM; in DMSO
Method: as §1

[4] = compound: COC(=O)C(F)(F)C(F)(F)OC(F)(C(F)(F)F)C(F)(F)OC(F)=C(F)F [Methyl perfluoro(3-(1-ethenyloxypropan-2-yloxy)propanoate)]; test: as above; conditions: in DMSO
Method: as §1

[5] = compound: FC(F)(F)C(F)(F)C(F)(F)C(F)(F)C(F)(F)C(F)(F)C(F)(F)I [1-Iodopentadecafluoroheptane]; test: as above; conditions: in DMSO
Method: as §1

[6] = compound: FC(F)(F)C(F)(F)C(F)(F)C(F)(F)C(F)(F)C(F)(F)CC1CO1 [3-(Perfluorohexyl)-1,2-epoxypropane]; test: as above; conditions: in DMSO
Method: as §1

[7] = compound: FC(F)(F)C(F)(F)C(F)(F)CC1CO1 [1H,1H-Heptafluorobutyl epoxide]; test: as above; conditions: in DMSO
Method: as §1

[8] = compound: FC(F)(F)C(F)(F)C(F)(F)CI [Heptafluorobutyl iodide]; test: as above; conditions: in DMSO
Method: as §1

[9] = compound: FC(F)(F)C(F)(F)CNCC(F)(F)C(F)(F)F [Bis(1H,1H-perfluoropropyl)amine]; test: as above; conditions: in DMSO
Method: as §1

[10] = compound: NC(=O)C(F)(F)C(F)(F)C(F)(F)C(F)(F)C(N)=O [Octafluoroadipamide]; test: as above; conditions: in DMSO
Method: as §1

[11] = compound: NC(=O)C(F)(F)C(F)(F)C(F)(F)C(F)(F)F [Nonafluoropentanamide]; test: as above; conditions: in DMSO
Method: as §1

[12] = compound: NC(=O)C(F)(F)C(F)(F)C(F)(F)C(F)F; test: as above; conditions: in DMSO
Method: as §1

[13] = compound: NS(=O)(=O)C(F)(F)C(F)(F)C(F)(F)C(F)(F)C(F)(F)C(F)(F)F [Perfluorohexanesulfonamide]; test: as above; conditions: in DMSO
Method: as §1

[14] = compound: O=C(O)C(F)(F)C(F)(F)C(F)(F)C(F)(F)C(F)(F)C(F)(F)C(F)(F)C(F)(F)C(F)(F)C(F)F [11-H-Perfluoroundecanoic acid]; test: as above; conditions: in DMSO
Method: as §1

[15] = compound: O=C(O)C=CC(F)(C(F)(F)F)C(F)(F)F [3-(Perfluoroisopropyl)-2-propenoic acid]; test: as above; conditions: in DMSO
Method: as §1

[16] = compound: O=S(=O)(Cl)C(F)(F)C(F)(F)C(F)(F)C(F)(F)C(F)(F)C(F)(F)C(F)(F)C(F)(F)F [Perfluoro-1-octanesulfonyl chloride]; test: as above; conditions: in DMSO
Method: as §1

[17] = compound: O=S(=O)(F)C(F)(F)C(F)(F)C(F)(F)C(F)(F)C(F)(F)C(F)(F)C(F)(F)C(F)(F)F [Perfluorooctanesulfonyl fluoride]; test: as above; conditions: in DMSO
Method: as §1

[18] = compound: O=S(=O)(O)C(F)(F)C(F)(F)C(F)(F)C(F)(F)C(F)(F)C(F)(F)C(F)(F)C(F)(F)C(F)(F)C(F)(F)F [Sodium perfluorodecanesulfonate]; test: as above; conditions: in DMSO
Method: as §1

[19] = compound: O=S(=O)(O)CCC(F)(F)C(F)(F)C(F)(F)C(F)(F)C(F)(F)C(F)(F)F [6:2 Fluorotelomer sulfonic acid]; test: as above; conditions: in DMSO
Method: as §1

[20] = compound: OCC(F)(F)C(F)(F)C(F)(F)CO [Hexafluoroamylene glycol]; test: as above; conditions: in DMSO
Method: as §1

3C Eselectin down
LOEC (log10 uM) [1]: 0.573 ± 0.39

3C ICAM1 down
LOEC (log10 uM) [1]: 1.3

3C IL8 down
LOEC (log10 uM) [1]: 1.3

3C MIG down
LOEC (log10 uM) [1]: 1.3

3C TissueFactor down
LOEC (log10 uM) [1]: 0.845

3C VCAM1 down
LOEC (log10 uM) [1]: 0.845

4H MCP1 down
LOEC (log10 uM) [1]: 1.3

4H Pselectin down
LOEC (log10 uM) [1]: 1.3

4H uPAR down
LOEC (log10 uM) [1]: 1.04 ± 1

BT Bcell Proliferation down
LOEC (log10 uM) [1]: 0.845

BT PBMCCytotoxicity down
LOEC (log10 uM) [1]: 0.573 ± 0.39

BT sIgG down
LOEC (log10 uM) [1]: 0.845

BT xIL2 down
LOEC (log10 uM) [1]: 0.845

BT xIL6 down
LOEC (log10 uM) [1]: 0.573 ± 0.39

BT xIL17A down
LOEC (log10 uM) [1]: 0.845

BT xIL17F down
LOEC (log10 uM) [1]: 0.301

BT xTNFa down
LOEC (log10 uM) [1]: 0.301

CASM3C HLADR down
LOEC (log10 uM) [1]: 1.3

CASM3C IL6 down
LOEC (log10 uM) [1]: 1.3

CASM3C IL8 down
LOEC (log10 uM) [1]: 1.3

CASM3C LDLR down
LOEC (log10 uM) [1]: 1.78

CASM3C MCP1 down
LOEC (log10 uM) [1]: 1.78

CASM3C MCSF down
LOEC (log10 uM) [1]: 1.3

CASM3C MIG down
LOEC (log10 uM) [1]: 0.845

CASM3C PAI1 down
LOEC (log10 uM) [1]: 1.78

CASM3C Proliferation down
LOEC (log10 uM) [1]: 0.573 ± 0.39

CASM3C SAA down
LOEC (log10 uM) [1]: 1.78

CASM3C SRB down
LOEC (log10 uM) [1]: 1.54 ± 0.34

CASM3C Thrombomodulin up
LOEC (log10 uM) [1]: 1.3

CASM3C VCAM1 down
LOEC (log10 uM) [1]: 0.845

CASM3C uPAR down
LOEC (log10 uM) [1]: 1.78

IMphg IL8 down
LOEC (log10 uM) [1]: 1.78

IMphg MIP1a down
LOEC (log10 uM) [1]: 1.78

KF3CT ICAM1 down
LOEC (log10 uM) [1]: 1.07 ± 0.32

KF3CT IL8 down
LOEC (log10 uM) [1]: 1.3

KF3CT TIMP2 down
LOEC (log10 uM) [1]: 1.78

LPS IL1a down
LOEC (log10 uM) [1]: 1.3

LPS IL8 down
LOEC (log10 uM) [1]: 1.3

LPS MCSF down
LOEC (log10 uM) [1]: 1.3

LPS TNFa down
LOEC (log10 uM) [1]: 1.3

LPS TissueFactor down
LOEC (log10 uM) [1]: 1.07 ± 0.32

MyoF Decorin down
LOEC (log10 uM) [1]: 1.3

MyoF IL8 down
LOEC (log10 uM) [1]: 1.3

MyoF TIMP1 down
LOEC (log10 uM) [1]: 1.3

lMphg:CD40
level (log10) ([2]; 6700 nM): -0.0125 ± 0.016 | level (log10) ([2]; 20000 nM): 0.0065 ± 0.023 | level (log10) ([2]; 60000 nM): 0.0235 ± 0.005 | level (log10) [3]: -0.0585 ± 0.015 | level (log10) ([4]; 6700 nM): -0.0295 ± 0.0064 | level (log10) ([4]; 20000 nM): -0.0365 ± 0.028 | level (log10) ([5]; 6700 nM): -0.0175 ± 0.052 | level (log10) ([5]; 20000 nM): -0.0365 ± 0.046 | level (log10) ([6]; 6700 nM): -0.029 ± 0.0071 | level (log10) ([6]; 20000 nM): -0.0195 ± 0.005 | level (log10) ([6]; 60000 nM): -0.005 ± 0.0028 | level (log10) ([7]; 6700 nM): -0.005 ± 0.025 | level (log10) ([7]; 20000 nM): -0.001 ± 0.016 | level (log10) ([7]; 60000 nM): 0.0045 ± 0.0021 | level (log10) ([8]; 6700 nM): -0.025 ± 0.031 | level (log10) ([8]; 20000 nM): -0.0065 ± 0.013 | level (log10) ([8]; 60000 nM): -0.024 ± 0.0057 | level (log10) ([9]; 6700 nM): 0.006 ± 0.0057 | level (log10) ([9]; 20000 nM): 0.006 ± 0.0028 | level (log10) ([9]; 60000 nM): -0.0065 ± 0.0092 | level (log10) ([10]; 6700 nM): -0.0055 ± 0.0021 | level (log10) ([10]; 20000 nM): -0.0125 ± 0.0035 | level (log10) ([10]; 60000 nM): 0.0155 ± 0.00071 | level (log10) ([11]; 6700 nM): 0.0255 ± 0.03 | level (log10) ([11]; 20000 nM): 0.0255 ± 0.029 | level (log10) ([11]; 60000 nM): -0.0095 ± 0.012 | level (log10) ([12]; 6700 nM): -0.026 ± 0.027 | level (log10) ([12]; 20000 nM): -0.011 ± 0.0071 | level (log10) ([12]; 60000 nM): -0.017 ± 0.0042 | level (log10) ([13]; 6700 nM): -0.02 ± 0.021 | level (log10) ([13]; 20000 nM): -0.043 ± 0.031 | level (log10) ([13]; 60000 nM): -0.146 ± 0.021 | level (log10) ([14]; 6700 nM): -0.0365 ± 0.005 | level (log10) ([14]; 20000 nM): -0.04 ± 0.021 | level (log10) ([15]; 6700 nM): -0.0395 ± 0.053 | level (log10) ([15]; 20000 nM): -0.01 ± 0.025 | level (log10) ([15]; 60000 nM): -0.0045 ± 0.019 | level (log10) ([16]; 6700 nM): -0.0165 ± 0.019 | level (log10) ([16]; 20000 nM): -0.01 | level (log10) ([16]; 60000 nM): -0.0065 ± 0.0035 | level (log10) ([17]; 6700 nM): -0.023 ± 0.051 | level (log10) ([17]; 20000 nM): -0.0205 ± 0.049 | level (log10) ([17]; 60000 nM): -0.0575 ± 0.042 | level (log10) ([18]; 1500 nM): -0.0305 ± 0.0078 | level (log10) ([18]; 4400 nM): -0.0285 ± 0.016 | level (log10) ([18]; 13000 nM): -0.0455 ± 0.012 | level (log10) ([18]; 40000 nM): -0.104 ± 0.018 | level (log10) ([19]; 6700 nM): -0.017 ± 0.011 | level (log10) ([19]; 20000 nM): -0.022 ± 0.028 | level (log10) ([19]; 60000 nM): -0.05 ± 0.033 | level (log10) ([20]; 6700 nM): -0.0175 ± 0.0021 | level (log10) ([20]; 20000 nM): -0.002 ± 0.0028 | level (log10) ([20]; 60000 nM): -0.0285 ± 0.039
